According to patent US9415069B2, “Immunosuppressive cells and methods of making and using thereof” (National Health Research Institutes, priority 2012, dated 2016):
“Also recorded” adds a separate entry of the source.

What was measured:
immature MDDCs (iDCs) = assay: Endocytosis test (FITC-dextran uptake); format: cell-based, human; conditions: GRO-γ 250 ng/mL
Procedure: The endocytic activity of iMDDCs or mMDDCs was measured by analyzing the cellular uptake of FITC-dextran (40 kD, FD40S, Sigma-Aldrich) as quantified by flow cytomerty. Cells (5×10^4 cells/sample/96 well V bottom plate) were incubated in RPMI-1640 medium with 1 mg/mL FITC-dextran for 30 min at 37° C. After incubation, cells were washed twice with staining buffer to remove free reagent then fixed with 1% paraformaldehyde. The signal from FITC-dextran endocytosed by cells was analyzed by FACS. Data analysis was performed using the FlowJo version 5.7.2 software. The signal obtained for cells incubated with medium in the absence of FITC-dextran was used as negative control.

BMDCs from C57BL/6 mice = assay: FACS of CD11b+ Gr-1+ cells in mouse BMDCs; format: cell-based; conditions: GM-CSF with or without GRO-γ, six days
Procedure: (§1) The phenotypic profiles of monocytes, iMDDCs and mMDDCs were obtained by staining 1×10^5 cells with fluorochrome-labeled antibodies (Abs) against CD11c, HLA-DR, CD80, CD86, CD83, CD40, and DC-SIGN. The fluorescence intensity was measured by flow cytometry. The corresponding isotype-matched controls used were FITC-IgG1, FITC-IgG2a, PE-IgG2a, and PE-IgG2b (BD Biosciences, San Jose, Calif., USA). Surface-labeled cells were analyzed using a FACS Calibur-flow cytometer (BD Biosciences). For cell purification, sorting was performed on a FACS Aria cell sorter (BD Biosciences). The purity of individual sorted cell populations was greater than 95%.
(§2) Murine bone marrow-derived dendritic cells (BM-DCs) were harvested and differentiated into dentritic cells as previously described (Song et al., 2011). Briefly, bone marrow cells from C57BL/6 mice were cultured at a density of 2×10^5 cells/mL in petri dishes containing 10 mL of complete RPMI-1640 medium with 200 U/mL (20 ng/mL) recombinant mouse GM-CSF in the presence or absence of recombinant mouse GRO chemokine. On day 3, half of the volume of the culture medium was replaced by complete RPMI medium containing 20 ng/mL of […] combined with or without GRO. On day 6, BMDCs from the different treatment groups were collected from each dish, washed and characterized.

CD11b+ Gr-1+ BMDCs = assay: ARG-1 and iNOS expression in mouse BMDCs; format: cell-based
Procedure: Total RNA was extracted with the Trizol reagent and converted to cDNA using a ReverTra Ace set (Toyobo Life Science, Osaka, Japan), according to manufacturer's instructions. Real-time PCR analysis was performed using an ABI Prism 7900 system (Applied Biosystems, Foster City, Calif., USA). Samples were treated according to the following program: […], 94° C. for 10 min, and 40 cycles of 95° C. for 15 s and 60° C. for 1 min. Analyses were performed in triplicate. For each sample, the cycle threshold (Ct) values were determined. Results were normalized to the GAPDH gene on the same plate. The levels of mRNA expression in different cell groups were calculated using the 2ΔCt method. Intron-spanning primers specific for each gene were designed. Their sequences are as follows: human GAPDH, […] (forward primer, F, SEQ ID NO:4), […] (reverse primer, R, SEQ ID NO:5); human IL-10, […] (F, SEQ ID NO:6), […] (R, SEQ ID NO:7); human IDO, […] (F, SEQ ID NO:8), TGACCTTTGCCCCACACAT (R, SEQ ID NO:9); human matrix-metallopeptidase-9 (MMP-9), […] (F, SEQ ID NO:10), […] (R, SEQ ID NO:11); human IL-4, […] (F, SEQ ID NO:12), GCCTGTGGAACTGCTGTGC (R, SQ ID NO:13); human IL-12p40, CGGTCATCTGCCGCAAA (F, SEQ ID NO:14), […] (R, SEQ ID NO:15); human TNF-α, […] (F, SEQ ID NO:16), CAGGCAGAAGAGCGTGGTG (R, SEQ ID NO:17); human IFN-γ, […] (F, SEQ ID NO:18), […] (R, SEQ ID NO:19); human Cox2, […] (F, SEQ ID NO:20), […] (R, SEQ ID NO:21); human PD-L1, […] (F, SEQ ID NO:22), […] (R, SEQ ID NO:23); human PD-L2, […] (F, SEQ ID NO:24), […] (R, SEQ ID NO:25); human TGF-β, […] (F, SEQ ID NO:26), […] (R, SEQ ID NO:27); human IL-6, […] (F, SEQ ID NO:28), […] (R, SEQ ID NO:29); IL-1β, […] (F, SEQ ID NO:30), […] (R, SEQ ID NO:31); mouse GAPDH, GATGCAGGGATGATGTTC (F, SEQ ID NO:32), TGCACCACCAACTGCTTAG (R, SEQ ID NO:33); mouse Arginase 1(Arg-1), […] (F, SEQ ID NO:34), […] (R, SEQ ID NO:35); mouse iNOS, […] (F, SEQ ID NO:36), […] (R, SEQ ID NO:37); mouse IFN-γ, […] (F, SEQ ID NO:38), […] (R, SEQ ID NO:39).
as §2

[1] = tested on: mature MDDCs co-cultured with allogeneic T cells; assay: MLR assay (allogeneic T-cell proliferation, [3H]-thymidine); format: cell-based, human; conditions: GRO-γ 250 ng/mL
Procedure: Monocyte-derived cells (3×10^4) at different stages of differentiation were irradiated at 30 Gy using an X-ray biological irradiator (X-ray R-2000, Rad Source Technologies, Inc, Alpharetta, Ga., USA) and then cultured with purified allogenic CD3 T cells (1:10) in complete culture medium in 96-well U-bottom plate. X-ray irradiated myeloid cells and allogenic T lymphocytes were placed in a humidified CO2 incubator at 37° C. After 96 hours, [^3H]-thymidine (1 μCi) was added to each well containing either monocytes-, iMDDCs-, or mMDDCs mixed with T cells, and further incubated for 16 hours. Cells were then harvested using a Filtermate 96-well harvester and radioactivity (cpm) measured as an index of cell proliferation in a Packard microplate scintillation and luminescence counter (Perkin-Elmer-Packard; Waltham, Mass., USA).

MDDCs [2] = assay: ELISA of cytokines in MDDC supernatants; format: cell-based, human; conditions: MDDCs differentiated with GRO-γ, recultured 3 days
Procedure: Supernatants from MDDCs alone (5×10^4), CD3^+ purified T-cells alone (isolated by the human CD3^+ Cell Isolation Kit, MACS, Miltenyi Biotec, Inc., 5×10^5), or MDDCs (5×10^4) co-cultured with CD3^+ purified T-cells (5×10^5) were harvested, and the concentrations of IL-4, IL-10, IL-12, INF-γ, IL-6 and TNF-α in supernatants were determined in triplicates using commercial ELISA kits according to the manufacturer's protocols (R&D systems).

MDDCs [3] = assay: Real-time PCR of selected genes in MDDCs from 7-day cultures; format: cell-based, human; conditions: MDDC differentiation in presence of GRO-γ
Procedure: Total RNA was extracted with the Trizol reagent and converted to cDNA using a ReverTra Ace set (Toyobo Life Science, Osaka, Japan), according to manufacturer's instructions. Real-time PCR analysis was performed using an ABI Prism 7900 system (Applied Biosystems, Foster City, Calif., USA). Samples were treated according to the following program: 5° C. for 2 min, 94° C. for 10 min, and 40 cycles of 95° C. for 15 s and 60° C. for 1 min. Analyses were performed in triplicate. For each sample, the cycle threshold (Ct) values were determined. Results were normalized to the GAPDH gene on the same plate. The levels of mRNA expression in different cell groups were calculated using the 2ΔCt method. Intron-spanning primers specific for each gene were designed. Their sequences are as follows: human GAPDH, […] (forward primer, F, SEQ ID NO:4), […] (reverse primer, R, SEQ ID NO:5); human IL-10, […] (F, SEQ ID NO:6), […] (R, SEQ ID NO:7); human IDO, […] (F, SEQ ID NO:8), TGACCTTTGCCCCACACAT (R, SEQ ID NO:9); human matrix-metallopeptidase-9 (MMP-9), […] (F, SEQ ID NO:10), […] (R, SEQ ID NO:11); human IL-4, […] (F, SEQ ID NO:12), GCCTGTGGAACTGCTGTGC (R, SQ ID NO:13); human IL-12p40, CGGTCATCTGCCGCAAA (F, SEQ ID NO:14), […] (R, SEQ ID NO:15); human TNF-α, […] (F, SEQ ID NO:16), CAGGCAGAAGAGCGTGGTG (R, SEQ ID NO:17); human IFN-γ, […] (F, SEQ ID NO:18), […] (R, SEQ ID NO:19); human Cox2, […] (F, SEQ ID NO:20), […] […]

[4] = tested on: human monocyte-derived dendritic cells (MDDCs); assay: Surface marker phenotype of human MDDCs by flow cytometry; format: cell-based
Procedure: Human monocyte-derived dendritic cells (MDDCs) were generated from leukaphereses obtained from healthy donors. Peripheral blood mononuclear cells (PBMCs) were purified by Fycoll-Hypaque Plus (GE Health-Pharmacia, Uppsala, Sweden) density centrifugation. CD14^+ monocytes were isolated using the human CD14^+ Cell Isolation Kit (MACS, Miltenyi Biotec, Inc., Auburn, Calif., USA) according to the manufacturer's instructions. The purified CD14^+ cells (1×10^6/mL) were subsequently cultured in 2 mL MSC-CM or α-MEM completed medium with 10% pooled AB-type human serum supplemented with rhGM-CSF (80 ng/mL) and rhIL-4 (80 ng/mL) (Peprotech, NJ) in the presence or absence of GRO chemokines to induce their differentiation into DCs. An additional 1 mL of medium containing the same concentrations of rhGM-CSF and rhIL-4 with or without GRO chemokines was added to each group of cells on day 3. Half-volume of culture medium was replaced with an equal volume of fresh medium containing the same concentrations of rhGM-CSF and rhIL-4 on day 5. Maturation of MDDCs (mature DCs, mMDDCs) was induced by adding 1 μg/mL LPS to the culture medium of iMDDCs on day 5 and cells were further cultured for another 48 hours. Phenotypic changes in immature DCs (iMDDCs) and mature DCs (mMDDCs) were monitored by FACS analysis on day 7. The study protocols were approved by the Institutional Review Board of Human Subject Research Ethics Committee of Academia Sinica (AS-IRB01-10113) and the Institutional Review Board of Research Ethics Committee of National Health Research Institutes (EC 1001101).
as §1

IDO in iDCs = assay: Intracellular IDO staining, confocal microscopy; format: cell-based, human; conditions: iDCs differentiated in presence of GRO-γ
Procedure: MDDCs were generated in the presence or absence of GRO-γ and then analyzed for the intracellular expression of the IDO protein. Cells (5×10^4) were plated onto poly-L-lysine-coated glass slides for 15 min, and washed twice quickly with 0.5 mL PBS. Cells were fixed by adding 0.5 mL of 1% paraformaldehyde (Sigma-Aldrich) for 10 minutes, and then subsequently washed with PBS three times and incubated in 0.5 mL of 1% BSA/PBS for 30 min at room temperature. Cells were washed with 0.1% (v/v) NP-40/PBS three times, and then incubated with 0.5% BSA/PBS containing 1:50 diluted mouse anti-human IDO antibody (Chemicon Inc, Temecula, Calif., USA) at room temperature for 1 h. Cells were further washed with 0.1% (v/v) NP-40/PBS to remove unbound antibody, and then incubated with 1:150 diluted anti-mouse IgG conjugated with DyLight 488 (Sigma-Aldrich) for 1 h at room temperature. After three final washes with 0.1% (v/v) NP-40/PBS, the slides were mounted with 10% Glycerol/PBS and sealed with nail polish. Fluorescent images were captured using a Leica TCS SP5 camera (Leica Camera AG, Solms, Germany).

GRO-γ: recombinant GRO chemokine CXCL3 (SEQ ID NO:3); human from PeproTech, mouse from R&D Systems
endocytic activity of iDCs (immature MDDCs (iDCs)): significantly down-regulated | percentage (frequency) of double positive CD11b+ Gr-1+ cells in BMDCs (BMDCs from C57BL/6 mice): did not depend on the presence of GRO-γ; also recorded: similar | protein expression and enzymatic activity of Arg-1 and iNOS (CD11b+ Gr-1+ BMDCs; GRO-γ treated BMDCs): increased | mRNA levels of ARG-1 and iNOS (CD11b+ Gr-1+ BMDCs; GRO-γ-treated BMDCs vs BMDCs): elevated | expression of the Arg-1 gene, the iNOS gene, and the MDSC-related genes (CD11b+ Gr-1+ BMDCs; presence of GRO-γ during BMDC differentiation): up-regulated | ability of mDCs to stimulate T-cell proliferation in mixed lymphocyte reaction [1]: significantly down-regulated | levels of IFN-γ and IL-12 in supernatants (MDDCs [2]): reduced levels | levels of IL-4 and IL-10 in supernatants (MDDCs [2]): elevated levels | expression levels of IL-10, IL-4, TGF-β, IL-1β, IL-6, COX2, PD-L1, PD-L2, MMP-9 and IDO genes (MDDCs [3]): significantly up-regulated | mRNA levels of TNF-α, IFN-γ and IL-12 (MDDCs [3]): significantly down-regulated | effect on CD40 expression ([4]; human iMDDCs supplemented with GRO isoform, day 7): significant inhibitory effects | surface expression of CD40, CD83, CD80, CD11c, CD86 and DC-SIGN ([4]; iDCs, recombinant GRO-γ 250 ng/mL vs absence): significantly reduced | DC-SIGN expression ([4]; mDCs, addition of GRO-γ): not affected | intracellular expression of IDO (IDO in iDCs): increase in intracellular expression
